The subject of test [1] is sperm adhering or attaching to the egg. Briefly: Equine-field observation of conception after D-Mannose. The class given is in vivo. To be noted: D-Mannose in sufficient quantities at the appropriate times. An excerpt:
In the equine field, Mr. […] Accordingly, the invention finds application in all fields of mammal animal husbandry to prevent unwanted cross-breeding, and to also prevent unwanted unproductive periods that are caused by undesired breeding.

The subject of a further test is bacteria. The following applies: as described in the referenced earlier patents and applications of Dale Benedict; cited from earlier work.

SMILES strings stand for the structures.

Take `O=C[C@@H](O)[C@@H](O)[C@H](O)[C@H](O)CO` [D-Mannose]: the likelihood of conception entry in test [1] was “reduces the likelihood of conception”. The “adherence of bacteria to membranes or cell walls” value in the test on bacteria is on record as “inhibits the adherence of bacteria to membranes or cell walls”.

The values above are taken from US20140256656A1, “D-MANNOSE CONTRACEPTIVES” (Bio-Tech Pharmacal, Inc., priority 2002, published 2014).
